Read-outs that look alike come from different tables or passages of the source.
Experiments:
[1] = Water-solubility by visual examination in 67 mM Sorensen phosphate buffers; type: physicochemical; details: 67 mM Sorensen phosphate buffer, ambient temperature
esterases = assay: Enzymatic stability: hydrolysis in Hepes buffer in the presence of esterases; details: 50 mM Hepes buffer, pH 7.4, 37° C., FIG. 1
Protocol: During the incubation at 37° C., 40 μl aliquots are sampled at appropriate time periods and analyzed by HPLC and ESI-MS.

[2] = rat, in vivo, iv, 10 mg/kg
[3] = type: in vitro ADME; details: bovine, serum
cornea = assay: Confocal laser scanning opthalmoscope test (subacute ocular toxicity); details: rabbit cornea, 25 μl three times a day for four days; (XV) aqueous solution, Cyclosporin A 1% in olive oil
Protocol: The solutions were sterilized by passing them through 0.22 μm nitrocellulose filters.
This test was carried out on the same type of animal as previously. 25 μl of a solution as described above were instilled onto the cornea of the right eye three times a day for four days, and then once on the fourth day just before observation. After the final installation, the rabbits were sedated by administering ketamine hydrochloride and xylazine. A total of 25 μl of a solution of sodium fluorescein at 0.5% by weight/volume were instilled onto the eye in order to allow selective labeling of the surfaces possibly damaged. The eye was then rinsed for one minute with a saline solution at 37° C.
The opthalmoscope was coupled to an image analysis system in order to be able to reconstitute an image in three dimensions and to allow evaluation of the damaged areas.

in vitro = in vitro ADME; details: rabbit, cerebrospinal or other body fluid, pH 7
Protocol: This conversion kinetics test was carried out by incubating, at 37° C., 25 μl of a sample of the solution described above, with gentle stirring, with 8 μl of fresh rabbit tear. 2 μl samples were taken at intervals of 1, 2, 3 and 30 minutes, and were then analyzed by HPLC.

[4] = T1/22 (terminal half-life time)

SMILES | solubility ([1]; pH 5) [mM] | solubility ([1]; pH 6, read-out: Water-solubility at pH = 6) [mM] | solubility ([1]; pH 7) [mM] | solubility ([1]; pH 8, read-out: Water-solubility at pH = 8) [mM] | hydrolysis in the presence of esterases (release of Cyclosporin A) (esterases) | AUC(0-inf) [2] [ng·h/mL] | MRT [2] [h] | clearance [2] [mL/min/kg] | half-life ([2]; T1/21 (initial half-life time)) [h] | half-life [2, 4] [h] | half-life [3] [h] | CLSO, % lesions (corneal lesions) (cornea) [%] | metabolised at 0.05 h, 0.76 % (weight/volume) Cyclosporin A equivalent (in vitro) [%]
C/C=C/C[C@@H](C)[C@@H](OC(=O)CN(C)C(=O)[C@H](COP(=O)(O)O)NC(=O)OC(C)OC(C)=O)[C@H]1C(=O)N[C@@H](CC)C(=O)N(C)CC(=O)N(C)[C@@H](CC(C)C)C(=O)N[C@@H](C(C)C)C(=O)N(C)[C@@H](CC(C)C)C(=O)N[C@@H](C)C(=O)N[C@H](C)C(=O)N(C)[C@@H](CC(C)C)C(=O)N(C)[C@@H](CC(C)C)C(=O)N(C)[C@@H](C(C)C)C(=O)N1C (stereo partly shown) [(XVI), MeBmt(O-Sar-Ser(OPO(OH)2)—COOCH(CH3)OCOCH3)^1-CsA] | > 20 | > 20 | > 20 | > 20 | rapidly degrades to release the Cyclosporin A | 44700 | 14.9 | 3.67 | 0.2 | 11.8 | 3.5 | – | –
C/C=C/C[C@@H](C)[C@@H](OC(=O)CN(C)C(=O)[C@H](CCCC[N+](C)(C)C)NC(=O)OC(C)OC(C)=O)[C@H]1C(=O)N[C@@H](CC)C(=O)N(C)CC(=O)N(C)[C@@H](CC(C)C)C(=O)N[C@@H](C(C)C)C(=O)N(C)[C@@H](CC(C)C)C(=O)N[C@@H](C)C(=O)N[C@H](C)C(=O)N(C)[C@@H](CC(C)C)C(=O)N(C)[C@@H](CC(C)C)C(=O)N(C)[C@@H](C(C)C)C(=O)N1C (stereo partly shown) [(XV), MeBmt(O-Sar-Lys(Nε^+Me3)-COOCH(CH3)OCOCH3))^1-CsA.I^−] | – | – | – | – | – | 66600 | 15.3 | 2.5 | 0.55 | 11.8 | 3.66 | 7 | 3

Reference: US6995139B2, “Cyclic undecapeptide pro-drugs and uses thereof” (Debiopharm S.A., priority 2001, dated 2006)
